Data on 19 compounds can be found in patent US5952511A, “Indolin-2-one derivatives” (Chugai Seiyaku Kabushiki Kaisha, priority 1993, dated 1999).

For experiment [1], the target named is T1, gastrin receptors (guinea pig gastric glands) (Cavia porcellus, UniProt H0VZC5).
T1 construct: The gastric glands were isolated from the tissue with a pipette; from tissue; host or cells: isolated gastric glands from gastric mucosa of Hartley male guinea pigs
T1 sequence (H0VZC5 1-426): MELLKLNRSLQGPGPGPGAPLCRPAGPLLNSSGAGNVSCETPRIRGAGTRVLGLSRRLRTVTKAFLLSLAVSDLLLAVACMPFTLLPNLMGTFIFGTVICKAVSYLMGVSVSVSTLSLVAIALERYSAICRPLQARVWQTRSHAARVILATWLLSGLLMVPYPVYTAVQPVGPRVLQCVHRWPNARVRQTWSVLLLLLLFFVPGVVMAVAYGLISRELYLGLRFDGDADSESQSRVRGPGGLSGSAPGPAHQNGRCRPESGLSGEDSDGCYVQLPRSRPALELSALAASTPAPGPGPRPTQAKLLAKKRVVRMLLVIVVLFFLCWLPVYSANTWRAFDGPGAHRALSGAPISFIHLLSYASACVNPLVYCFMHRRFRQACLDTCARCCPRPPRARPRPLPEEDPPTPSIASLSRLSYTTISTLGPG
Description: Gastrin Receptor Binding Test in Guinea Pig Gastric Glands (Test Example 1). Also on record: species or system guinea pig (Hartley, male). As to conditions: inhibition of specific 125I-gastrin I human binding (22.5 pM), 25° C., 45 min. How it is done: Gastrin Receptor Binding Test in Guinea Pig Gastric Glands
Preparation of Gastric Glands:
Guinea pig gastric glands were prepared according to the method of Chang, et al., Biochem. Biophys. Res. Commun., 134, 895 (1986). The gastric mucosa of a Hartley male guinea pig was peeled off. After washing, the mucosa was minced with scissors in buffer A (Eagle's MEM containing 2 mM L-glutamine and 25 mM HEPES; pH 7.4). After washing, the minced tissue was incubated in buffer A containing 0.025% collagenase, 0.01% soy bean trypsin inhibitor, and 0.1% BSA at 37° C. for 60 minutes under 95% O2 and 5% CO2. The gastric glands were isolated from the tissue with a pipette, washed twice with buffer A, and filtered through a mesh. Then, the gastric glands were obtained by centrifugation.
Guinea pig gastric glands were resuspended in buffer B (Hank's solution containing 10 mM HEPES and 0.2% BSA; pH 7.4) (10 ml of buffer B per guinea pig).
To 200 μl of the suspension containing the resuspended isolated gastric glands were added 20 μl of ^125 I-gastrin I human (final concentration: 22.5 pM). Then, 10 μl of a test compound or a solvent (for total binding) or 10 μM Pentagastrin (for nonspecific binding), and buffer B was added there to make a total volume of 1 ml. The reaction mixture was incubated at 25° C. for 45 minutes and then centrifuged at 12000 g. The supernatant was removed by suction, and the radioactivity of the isolated gastric glands was measured with a gamma-counter.
The specific binding of gastrin to gastrin receptors was obtained from a difference between the total binding and the nonspecific binding. The IC50 of the test compound in inhibition of specific binding was calculated.

A further experiment deals with gastric acid secretion. Description: Inhibitory Activity on Gastric Acid Secretion in Pylorus Ligated Rats (Test Example 2). As to conditions: Rattus norvegicus, intraduodenal, i.d., 4 h. The format is in vivo, rat (Sprague-Dawley, male). How it is done: Inhibitory Activity on Gastric Acid Secretion in Pyrolus Ligated Rats
Sprague-Dawley male rats weighing about 200 g were deprived of food for 24 hours while allowed water ad libitum. The abdomen was opened under anesthesia with ethyl ether, the pyrolus ligated, and the abdomen closed. The rats were deprived of food and water for 4 hours until they were surcrified with ethyl ether. The stomach was removed, and gastric juice was collected and measured. The gastric juice was centrifuged at 3000 rpm, and the supernatant was titrated up to pH 7.0 with 0.1N NaOH solution to obtain the acidity of the gastric juice. The amount of the gastric acid output was calculated by multiplying the gastric juice volume by the acidity, and the percent inhibition of acid secretion was obtained according to the following equation. A test compound, suspended in a 3% gum arabic solution, was administered intraduodenally at a dose of 2 ml/kg immediately after the pyrolus ligation.
Inhibition (%)=[(Average amount of gastric acid output in control group--Average amount of gastric acid output in test group)/Average amount of gastric acid secreted […]]×100

For `CCOC(CN1C(=O)C(CC(=O)Nc2ccc(OC)cc2)(NC(=O)Nc2cccc(OC)c2)c2ccccc21)OCC` (racemic) [Example 148, (RS)-1-(2,2-Diethoxyethyl)-3-((4-methoxyphenyl)aminocarbonylmethyl)-3-(N'-(3-methoxyphenyl)ureido)indolin-2-one], the IC50 – broadly, the concentration at which inhibition is half-maximal – in experiment [1] was 1.1 nM. In addition, in the experiment on gastric acid secretion, testing at 10 mg/kg gave an inhibition in vivo of 63%.

Regarding `CCOC(CN1C(=O)C(CC(=O)Nc2ccc(F)cc2)(NC(=O)Nc2cccc(OC)c2)c2ccccc21)OCC` (racemic) [Example 154, (RS)-1-(2,2-Diethoxyethyl)-3-((4-fluorophenyl)aminocarbonylmethyl)-3-(N'-(3-methoxyphenyl)ureido)indolin-2-one], in experiment [1], the IC50 stood at 1 nM. The inhibition in vivo (as a rule, the relative decrease from the control value, in per cent) at 10 mg/kg in the experiment on gastric acid secretion is 59%.

Take `CCOC(CN1C(=O)C(NC(=O)Nc2ccc(F)cc2)(NC(=O)Nc2ccc(F)cc2)c2ccccc21)OCC` [Example 14, 1-(2,2-Diethoxyethyl)-3,3-bis(N'-(4-fluorophenyl)ureido)indolin-2-one]: in experiment [1], the 50% inhibitory concentration (IC50) was 2.2 nM. This compound showed an inhibition in vivo at 10 mg/kg with gastric acid secretion of 49%.

`CCOC(CN1C(=O)C(CC(=O)Nc2ccc(C)cc2)(NC(=O)Nc2ccc(OC)cc2)c2ccccc21)OCC` (racemic) [Example 79, (RS)-1-(2,2-Diethoxyethyl)-3-(N'-(4-methoxyphenyl)ureido)-3-((4-methylphenyl)aminocarbonylmethyl)indolin-2-one] displayed an IC50 in experiment [1] of 1.9 nM. Moreover, in the experiment with gastric acid secretion, testing at 10 mg/kg gave an inhibition in vivo of 47%.

Turning to `CCOC(CN1C(=O)C(CC(=O)Nc2ncccn2)(NC(=O)Nc2ccc(C)cc2)c2ccccc21)OCC` (racemic) [Example 132, (RS)-1-(2,2-Diethoxyethyl)-3-(N'-(4-methylphenyl)ureido)-3-((2-pyrimidinyl)aminocarbonylmethyl)indolin-2-one], in experiment [1], the IC50 was 8.9 nM. The same compound showed an inhibition in vivo at 10 mg/kg in the experiment on gastric acid secretion of 52%.

In turn, `CCOC(CN1C(=O)C(CC(=O)Nc2cccc(OC)c2)(NC(=O)Nc2cccc(OC)c2)c2ccccc21)OCC` (racemic) [Example 151, (RS)-1-(2,2-Diethoxyethyl)-3-((3-methoxyphenyl)aminocarbonylmethyl)-3-(N'-(3-methoxyphenyl)ureido)indolin-2-one] displayed an IC50 in experiment [1] of 2.9 nM. This compound also returned an inhibition in vivo at 10 mg/kg with gastric acid secretion of 62%.

`CCOC(CN1C(=O)C(CC(=O)Nc2ccc(C)cc2)(NC(=O)Nc2cccc(C)c2)c2ccccc21)OCC` (racemic) [Example 81, (RS)-1-(2,2-Diethoxyethyl)-3-((4-methylphenyl)aminocarbonylmethyl)-3-(N'-(3-methylphenyl)ureido)indolin-2-one] registered an IC50 in experiment [1] of 1.6 nM. In the experiment on gastric acid secretion, this compound registered an inhibition in vivo at 10 mg/kg of 59%.

`CCOC(CN1C(=O)C(CC(=O)Nc2ccc(C)cc2)(NC(=O)Nc2ccc(F)cc2)c2ccccc21)OCC` (racemic) [Example 82, (RS)-1-(2,2-Diethoxyethyl)-3-(N'-(4-fluorophenyl)ureido)-3-((4-methylphenyl)aminocarbonylmethyl)indolin-2-one] yielded an IC50 in experiment [1] of 6.2 nM. In the experiment with gastric acid secretion, the inhibition in vivo at 10 mg/kg was 56%.

For `CCOC(CN1C(=O)C(CC(=O)Nc2ccc(N)cc2)(NC(=O)Nc2ccc(C)cc2)c2ccccc21)OCC` (racemic) [Example 125, (RS)-3-((4-Aminophenyl)aminocarbonylmethy)-1-(2,2-diethoxyethyl)-3-(N'-(4-methylphenyl)ureido)indolin-2-one], the IC50 in experiment [1] was found to be 2.5 nM. In the experiment on gastric acid secretion, this compound showed an inhibition in vivo at 10 mg/kg of 54%.

For `CCOC(CN1C(=O)C(CC(=O)Nc2ccc(C)cc2)(NC(=O)Nc2cccc(F)c2)c2ccccc21)OCC` (racemic) [Example 94, (RS)-1-(2,2-Diethoxyethyl)-3-(N'-(3-fluorophenyl)ureido)-3-((4-methylphenyl)aminocarbonylmethyl)indolin-2-one], the IC50 in experiment [1] stood at 3.5 nM. The inhibition in vivo at 10 mg/kg in the experiment on gastric acid secretion is 70%.

Turning to `CCOC(CN1C(=O)C(CC(=O)Nc2ccc(N(C)C(=O)C(F)(F)F)cc2)(NC(=O)Nc2ccc(C)cc2)c2ccccc21)OCC` (racemic) [Example 131, (RS)-1-(2,2-Diethoxyethyl) 3-((4-(N-trifluoromethylcarbonyl-N-methylamino)phenyl)aminocarbonylmethyl)-3-(N'-(4-methylphenyl)ureido)indolin-2-one], the half-inhibitory concentration (IC50) in experiment [1] was determined as 23 nM. This compound had an inhibition in vivo at 10 mg/kg with gastric acid secretion of 65%.

Turning to `CCOC(CN1C(=O)C(CC(=O)Nc2ccc(C)cc2)(NC(=O)Nc2ccccc2)c2ccccc21)OCC` (racemic) [Example 84, (RS)-1-(2,2-Diethoxyethyl)-3-((4-methylphenyl)aminocarbonylmethyl)-3-(N'-phenylureido)indolin-2-one], the IC50 in experiment [1] is 3.4 nM. In the experiment with gastric acid secretion, this compound registered an inhibition in vivo at 10 mg/kg of 68%.

`CCOC(CN1C(=O)C(CC(=O)Nc2cccc(C)c2)(NC(=O)Nc2cccc(OC)c2)c2ccccc21)OCC` (racemic) [Example 152, (RS)-1-(2,2-Diethoxyethyl)-3-(N'-(3-methoxyphenyl)ureido)-3-((3-methylphenyl)aminocarbonylmethyl)indolin-2-one] yielded a concentration for half-maximal inhibition (IC50) in experiment [1] of 2.1 nM. The same compound yielded an inhibition in vivo at 10 mg/kg with gastric acid secretion of 64%.

`CCOC(CN1C(=O)C(CC(=O)Nc2ccc(C)cc2)(NC(=O)Nc2cccc(OC)c2)c2ccccc21)OCC` (racemic) [Example 85, (RS)-1-(2,2-Diethoxyethyl)-3-(N'-(3-methoxyphenyl)ureido)-3-((4-methylphenyl)aminocarbonylmethyl)indolin-2-one] came in with an IC50 in experiment [1] of 1.2 nM. For the same compound, at 10 mg/kg the inhibition in vivo in the experiment on gastric acid secretion was 72%.

For `CCOC(CN1C(=O)C(CC(=O)Nc2ccc(F)cc2)(NC(=O)Nc2ccc(F)cc2)c2ccccc21)OCC` (racemic) [Example 170, (RS)-1-(2,2-Diethoxyethyl)-3-((4-fluorophenyl)aminocarbonylmethyl)-3-(N'-(4-fluorophenyl)ureido)indolin-2-one], the IC50 in experiment [1] turned out to be 5.1 nM. This compound had an inhibition in vivo at 10 mg/kg with gastric acid secretion of 63%.

In the case of `CCOC(CN1C(=O)C(CC(=O)Nc2ccc(F)cc2)(NC(=O)Nc2ccc(C)cc2)c2ccccc21)OCC` (racemic) [Example 124, (RS)-1-(2,2-Diethoxyethyl)-3-((4-fluorophenyl)aminocarbonylmethyl)-3-(N'-(4-methylphenyl)ureido)indolin-2-one], the IC50 in experiment [1] amounted to 5.3 nM. Moreover, in the experiment with gastric acid secretion, the inhibition in vivo at 10 mg/kg stood at 54%.

`CCOC(CN1C(=O)C(CC(=O)Nc2ccc(C)cc2)(NC(=O)Nc2cccc(Cl)c2)c2ccccc21)OCC` (racemic) [Example 89, (RS)-3-(N'-(3-Chlorophenyl)ureido)-1-(2,2-diethoxyethyl)-3-((4-methylphenyl)aminocarbonylmethyl)indolin-2-one] came in with an IC50 in experiment [1] of 5.8 nM. In the experiment on gastric acid secretion, the inhibition in vivo at 10 mg/kg came out at 65%.

With `CCOC(CN1C(=O)C(CC(=O)Nc2ccc(Cl)cc2)(NC(=O)Nc2ccc(OC)cc2)c2ccccc21)OCC` (racemic) [Example 169, (RS)-3-(-(4-Chlorophenyl)aminocarbonylmethyl)-1-(2,2-diethoxyethyl)-3-(N'-(4-methoxyphenyl)ureido)indolin-2-one], in experiment [1], the IC50 is 1.9 nM. The inhibition in vivo at 10 mg/kg in the experiment on gastric acid secretion stood at 52%.

`CCOC(CN1C(=O)C(CC(=O)Nc2ccc(C)cc2)(NC(=O)Nc2cccc(OC)c2)c2ccccc21)OCC` (single isomer, unassigned; (+)) [Example 188, (+)-1-(2,2-Diethoxyethyl)-3-(4-methylphenyl)aminocarbonylmethyl-3-(N'-(3-methoxyphenyl)ureido)indolin-2-one]: the IC50 in experiment [1] is 0.35 nM. In the experiment on gastric acid secretion (3 mg/kg), this compound came in with an inhibition in vivo at 3 mg/kg of 76%.
